Target: TcdB1 (Clostridioides difficile, UniProt P18177)
Sequence (P18177 2-2366 limits assumed): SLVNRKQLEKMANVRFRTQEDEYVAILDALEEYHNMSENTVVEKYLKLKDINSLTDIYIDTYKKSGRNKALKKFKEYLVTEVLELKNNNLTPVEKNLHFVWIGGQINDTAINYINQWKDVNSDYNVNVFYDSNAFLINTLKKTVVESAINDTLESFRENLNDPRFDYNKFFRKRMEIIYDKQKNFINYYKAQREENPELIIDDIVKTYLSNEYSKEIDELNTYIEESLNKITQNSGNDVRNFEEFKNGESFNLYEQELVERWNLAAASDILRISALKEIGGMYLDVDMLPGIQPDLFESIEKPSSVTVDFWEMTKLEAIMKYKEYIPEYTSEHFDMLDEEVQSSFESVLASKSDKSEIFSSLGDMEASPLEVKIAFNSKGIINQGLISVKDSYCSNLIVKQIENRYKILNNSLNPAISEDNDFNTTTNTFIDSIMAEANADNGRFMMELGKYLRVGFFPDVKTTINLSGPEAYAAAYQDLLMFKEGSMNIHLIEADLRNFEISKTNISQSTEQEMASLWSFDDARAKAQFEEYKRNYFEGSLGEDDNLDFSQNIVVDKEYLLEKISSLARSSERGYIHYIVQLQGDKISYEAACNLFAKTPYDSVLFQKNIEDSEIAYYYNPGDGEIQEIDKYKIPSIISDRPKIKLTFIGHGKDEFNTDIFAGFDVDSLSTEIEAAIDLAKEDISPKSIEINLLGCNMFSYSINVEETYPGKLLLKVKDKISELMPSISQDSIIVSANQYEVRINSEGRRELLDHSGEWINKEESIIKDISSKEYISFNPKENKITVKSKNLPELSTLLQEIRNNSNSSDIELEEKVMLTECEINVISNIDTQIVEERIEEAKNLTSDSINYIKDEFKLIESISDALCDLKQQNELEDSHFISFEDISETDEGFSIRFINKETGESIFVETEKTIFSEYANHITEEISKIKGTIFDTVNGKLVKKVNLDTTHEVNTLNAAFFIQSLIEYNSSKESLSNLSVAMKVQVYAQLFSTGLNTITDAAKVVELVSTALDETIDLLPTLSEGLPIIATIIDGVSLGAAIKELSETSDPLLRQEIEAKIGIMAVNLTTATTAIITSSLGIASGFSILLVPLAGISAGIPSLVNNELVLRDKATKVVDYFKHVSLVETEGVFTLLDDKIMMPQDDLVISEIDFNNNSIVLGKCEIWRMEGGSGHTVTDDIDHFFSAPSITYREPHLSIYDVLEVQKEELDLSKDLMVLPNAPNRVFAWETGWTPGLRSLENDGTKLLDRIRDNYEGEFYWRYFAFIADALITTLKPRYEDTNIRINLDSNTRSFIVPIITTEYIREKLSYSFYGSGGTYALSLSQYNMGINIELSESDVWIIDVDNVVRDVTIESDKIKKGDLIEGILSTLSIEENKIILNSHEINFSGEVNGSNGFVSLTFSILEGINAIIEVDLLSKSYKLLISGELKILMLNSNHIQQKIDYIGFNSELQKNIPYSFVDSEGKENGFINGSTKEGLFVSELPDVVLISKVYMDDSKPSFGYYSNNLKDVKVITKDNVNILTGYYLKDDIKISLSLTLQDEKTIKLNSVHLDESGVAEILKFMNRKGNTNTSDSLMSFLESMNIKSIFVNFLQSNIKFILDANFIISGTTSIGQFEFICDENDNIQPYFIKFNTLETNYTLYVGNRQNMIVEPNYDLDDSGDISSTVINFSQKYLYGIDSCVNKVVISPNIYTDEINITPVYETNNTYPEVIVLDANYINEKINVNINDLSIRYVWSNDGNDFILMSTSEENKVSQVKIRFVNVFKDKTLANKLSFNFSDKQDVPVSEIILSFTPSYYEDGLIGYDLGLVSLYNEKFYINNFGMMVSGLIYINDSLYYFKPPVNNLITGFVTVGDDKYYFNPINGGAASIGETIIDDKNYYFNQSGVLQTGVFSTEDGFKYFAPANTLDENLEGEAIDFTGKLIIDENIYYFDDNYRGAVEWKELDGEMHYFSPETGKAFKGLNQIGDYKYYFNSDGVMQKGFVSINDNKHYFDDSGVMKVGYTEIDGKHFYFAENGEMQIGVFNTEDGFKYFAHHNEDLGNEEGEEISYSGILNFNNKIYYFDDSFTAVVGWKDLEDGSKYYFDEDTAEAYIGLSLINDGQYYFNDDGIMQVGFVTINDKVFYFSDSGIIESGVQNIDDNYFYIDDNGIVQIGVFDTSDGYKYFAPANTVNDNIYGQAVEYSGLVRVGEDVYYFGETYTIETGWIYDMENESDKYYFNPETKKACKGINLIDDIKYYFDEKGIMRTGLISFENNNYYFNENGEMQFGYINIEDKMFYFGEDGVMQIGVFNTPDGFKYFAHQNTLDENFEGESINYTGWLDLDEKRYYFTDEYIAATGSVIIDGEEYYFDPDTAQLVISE

In the case of `CC[C@H](C)[C@H](NC(=O)[C@H](CCCCN)NC(=O)[C@H](CC(=O)O)NC(=O)[C@H](CO)NC(=O)[C@@H](NC(=O)[C@@H](NC(=O)[C@H](CC(N)=O)NC(=O)CNC(=O)[C@H](CCCCN)NC(=O)[C@H](Cc1ccccc1)NC(=O)[C@@H](NC(=O)[C@@H](N)CC(N)=O)C(C)C)[C@@H](C)O)[C@@H](C)CC)C(=O)N[C@@H](CO)C(=O)N[C@@H](Cc1ccccc1)C(=O)N[C@@H](CC(N)=O)C(=O)N[C@@H](Cc1ccccc1)C(=O)N[C@@H](CO)C(=O)N[C@@H](CC(=O)O)C(=O)N[C@@H](CCCCN)C(=O)O` [PepB2], the “increase of the 50% toxic concentration (TC50) of TcdB1” value is reported as 500 fold and the “protection from cytotoxicity of TcdB1 over a range of toxin concentrations” value is reported as “protects CHO-K1 cells”.
